# In US20210395239A1 (Hoffmann-La Roche Inc., priority 2018, published 2021):
# Target: T1, human TLR8 (Homo sapiens, UniProt Q9NR97)
# T1 construct: host or cells: HEK293 (HEK-Blue hTLR8)
# T1 sequence (Q9NR97 27-1041): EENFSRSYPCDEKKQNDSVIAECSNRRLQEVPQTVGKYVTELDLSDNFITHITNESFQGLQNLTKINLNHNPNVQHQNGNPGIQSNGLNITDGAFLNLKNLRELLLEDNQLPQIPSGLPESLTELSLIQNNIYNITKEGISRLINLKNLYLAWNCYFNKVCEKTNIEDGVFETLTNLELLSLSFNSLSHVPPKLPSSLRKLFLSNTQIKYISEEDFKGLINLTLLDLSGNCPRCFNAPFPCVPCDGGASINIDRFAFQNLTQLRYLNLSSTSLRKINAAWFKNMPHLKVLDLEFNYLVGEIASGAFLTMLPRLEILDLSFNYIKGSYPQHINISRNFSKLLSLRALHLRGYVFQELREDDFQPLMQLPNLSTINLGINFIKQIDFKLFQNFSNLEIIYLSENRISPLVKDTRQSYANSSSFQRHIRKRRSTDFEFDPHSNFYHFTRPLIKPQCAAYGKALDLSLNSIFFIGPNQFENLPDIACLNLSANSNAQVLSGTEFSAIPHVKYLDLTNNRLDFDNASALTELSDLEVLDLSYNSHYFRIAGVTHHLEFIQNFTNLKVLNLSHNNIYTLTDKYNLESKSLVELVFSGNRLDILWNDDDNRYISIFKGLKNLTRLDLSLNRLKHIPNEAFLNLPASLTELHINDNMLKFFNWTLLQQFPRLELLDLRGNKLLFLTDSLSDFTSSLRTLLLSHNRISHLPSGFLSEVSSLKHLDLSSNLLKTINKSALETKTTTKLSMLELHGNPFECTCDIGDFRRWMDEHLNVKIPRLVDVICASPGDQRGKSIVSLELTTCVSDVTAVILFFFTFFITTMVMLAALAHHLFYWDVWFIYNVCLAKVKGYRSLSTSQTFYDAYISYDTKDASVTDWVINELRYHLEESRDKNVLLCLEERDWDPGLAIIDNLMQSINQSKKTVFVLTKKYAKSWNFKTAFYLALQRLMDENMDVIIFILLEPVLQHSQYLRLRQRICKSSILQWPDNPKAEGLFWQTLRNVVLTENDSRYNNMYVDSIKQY
# Experiment: HEK293-Blue-hTLR-8 cells assay (SEAP reporter, R848 stimulation)
# Type: cell-based
# Conditions: HEK293-Blue-hTLR8 cells, R848, 20 hrs; read-out: HEK/hTLR8 IC50
# How it was run: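 HEK293-Blue-hTLR8 cells (NF-κB/AP-1-driven SEAP) incubated 20 h at 37° C with serially diluted compound (1% DMSO) plus R848 stimulation. Supernatant SEAP measured with QUANTI-Blue, 2 h at 37° C, absorbance 620–655 nm.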
row,IC50 [nM],SMILES
1,92,"C[C@@H]1CN(c2ccc(C#N)n3ncc(F)c23)C[C@H](CN2CC(c3ccc(N4C[C@@H]5C[C@H]4CN5)nc3)C2)O1 [Example 165, 4-[(2S,6R)-2-[[3-[6-[(1S,4S)-2,5-diazabicyclo[2.2.1]heptan-2-yl]-3-pyridyl]azetidin-1-yl]methyl]-6-methyl-morpholin-4-yl]-3-fluoro-pyrazolo[1,5-a]pyridine-7-carbonitrile]"
2,31,"CO[C@@H]1CN(c2ccc(N3CCN(C[C@H]4CN(c5ccc(C#N)n6ncc(F)c56)C[C@@H](C)O4)CC3)cn2)C[C@H]1N [Example 166, 4-[(2S,6R)-2-[[4-[6-[(3R,4R)-3-amino-4-methoxy-pyrrolidin-1-yl]-3-pyridyl]piperazin-1-yl]methyl]-6-methyl-morpholin-4-yl]-3-fluoro-pyrazolo[1,5-a]pyridine-7-carbonitrile]"

# The next lines start with the compound.
row,SMILES,IC50 [nM]
1,"[2H]c1ccc2c(N3C[C@H](CN4CCN(c5ccc(N[C@H]6CNC[C@H]6F)nc5)CC4)O[C@H](C)C3)ccc(C#N)c2n1 [Example 162, 2-deuterio-5-[(2S,6R)-2-[[4-[6-[[(3S,4R)-4-fluoropyrrolidin-3-yl]amino]-3-pyridyl]piperazin-1-yl]methyl]-6-methyl-morpholin-4-yl]quinoline-8-carbonitrile]",11
2,"C[C@@H]1CN(c2ccc(C#N)n3nccc23)C[C@H](CN2CC(c3ccc(N4CC(C)(N)C4)cc3)C2)O1 [Example 163, 4-[(2S,6R)-2-[[3-[4-(3-amino-3-methyl-azetidin-1-yl)phenyl]azetidin-1-yl]methyl]-6-methyl-morpholin-4-yl]pyrazolo[1,5-a]pyridine-7-carbonitrile]",68
3,"CO[C@@H]1CN(c2ccc(C3CN(C[C@H]4CN(c5ccc(C#N)n6ncc(F)c56)C[C@@H](C)O4)C3)cn2)C[C@H]1N [Example 164, 4-[(2S,6R)-2-[[3-[6-[(3R,4R)-3-amino-4-methoxy-pyrrolidin-1-yl]-3-pyridyl]azetidin-1-yl]methyl]-6-methyl-morpholin-4-yl]-3-fluoro-pyrazolo[1,5-a]pyridine-7-carbonitrile]",30
